Here are results for seven molecules from patent US4220771A, “2,3-Polymethylene-4-oxo-4H-pyrido[1,2-a]pyrimidines” (Chinoin Gyogyszer es Vegyeszeti Termekek Gyara Rt, priority 1977, dated 1980).

What all share (type): in vivo
A short description of data set [1]: toxicity in mice, 48 hours observation, Litchfield-Wilcoxon graphic method. The settings on record: mouse, in vivo.
In data set [2] the test system is mice. Put plainly: analgesic activity, "hot plate" test. The note with it: for ED50: Mus musculus. An excerpt:
(§1) Also the analgesic and morphine-potentiating activities were investigated on mice. The test results obtained in a "hot plate" test (J. Pharm. Exp. Therp. 80 130 (1944) and Kiserl. Orvostudomany 2, 295 (1950) and results obtained in laparotomic test of Knoll (Animal and Clinical Pharmacologic Techniques in Drug Evaluation. Vol. 2. 305-321 (1967), Year Book Publ. Chicago) are shown in Table 1.

Data set [3] relates to mice. Put plainly: morphine-potentiating activity. The note with it: i.v., with 5 mg. morphine.
Source text: as §1

Data set [4] concerns mice. Put plainly: toxicity in mice, 48 hours observation, Litchfield-Wilcoxon graphic method.

The term LD50 denotes the dose expected to kill half of the subjects tested. A low value points to a more toxic substance. The term ED50 denotes the midpoint of the dose-response relation.

Structures can show the parent of a compound that is named as a salt.

Consider `O=c1c2c(nc3ccccn13)CCCCCC2` [2,3-hexamethylene-4-oxo-4H-pyrido(1,2-a)pyrimidine-hydrochloride], for which the LD50 at 48 h in data set [1] (iv) came out at 125 mg/kg; in data set [1] (sc), 500 mg/kg. Further, the ED50 in the data set on mice [2] (sc) was 105 mg/kg. The “Dose potentiating the activity of 5 mg. morphine, ED50” value (“Dose potentiating the activity” below) in the data set on mice [3] amounted to 4.5 mg/kg.

Consider `O=c1c2c(nc3ccccn13)CCCCC2` [2,3-pentamethylene-4-oxo-4H-pyrido(1,2-a)pyrimidine-hydrochloride], for which the LD50 at 48 h in data set [1] (iv) stood at 210 mg/kg; in data set [1] (sc) it was 630 mg/kg. Further, the ED50 in the data set with mice [2] (sc) is 66 mg/kg. Moreover, in the data set with mice [3], the “Dose potentiating the activity” value is 3.7 mg/kg.

As for `Cc1cccc2nc3c(c(=O)n12)CCCC3` [2,3-tetramethylene-6-methyl-4-oxo-4H-pyrido(1,2-a)pyrimidine-hydrochloride], in data set [1] (iv), the LD50 at 48 h was 160 mg/kg. Besides, the “Dose potentiating the activity” value in the data set on mice [3] is 7.8 mg/kg.

On to `CCOC(=O)c1c[n+](C)c2n(c1=O)C(C)CCC2.COS(=O)(=O)[O-]` (stereo not drawn) [PROBON, reference compound], for which the LD50 worked out at 220 mg/kg in the data set with mice [4] (i.v.) and 790 mg/kg in the data set with mice [4] (s.c.). The “Hot plate ED50” value in the data set with mice [2] (i.v.) is 43 mg/kg; in the data set with mice [2] (s.c.), 75 mg/kg. Moreover, in the data set on mice [3], the “Dose potentiating the activity” value was 25.0 mg/kg.

In the case of `Cc1cc(C)n2c(=O)c3c(nc2c1)CCC3` [2,3-trimethylene-6,8-dimethyl-4-oxo-4H-pyrido(1,2-a)pyrimidine-hydrochloride], the LD50 at 48 h in data set [1] (iv) worked out at 120 mg/kg. Further, in the data set on mice [2] (iv), the ED50 was determined as 42 mg/kg. In the data set on mice [3], the “Dose potentiating the activity” value amounted to 1.0 mg/kg.

`Cc1ccc2nc3c(c(=O)n2c1)CCC3` [2,3-trimethylene-7-methyl-4-oxo-4H-pyrido(1,2-a)pyrimidine-hydrochloride] registered an LD50 at 48 h in data set [1] (iv) of 120 mg/kg. The 50% effective dose (ED50) with mice [2] (iv) is 47 mg/kg. The “Dose potentiating the activity” value in the data set on mice [3] is 1.0 mg/kg.

In the case of `Cc1ccn2c(=O)c3c(nc2c1)CCC3` [2,3-trimethylene-8-methyl-4-oxo-4H-pyrido(1,2-a)pyrimidine-hydrochloride], in data set [1] (iv), the LD50 at 48 h turned out to be 120 mg/kg. Also, the ED50 in the data set on mice [2] (iv) was found to be 65 mg/kg. Also, in the data set with mice [3], the “Dose potentiating the activity” value amounted to 4.8 mg/kg.
